Patent US10028961B2, “Therapeutically active compounds and their methods of use” (AGIOS PHARMACEUTICALS, INC., priority 2013, dated 2018)
pIC50: −log10 of the molar value. Where two headings read alike, the source gives them in different places.

Legend:
IDH2 R140Q = IDH2 R140Q (Homo sapiens (Human), UniProt P48735, R140Q); assay: In vitro assay for IDH2m R140Q inhibitors, cofactor depletion assay; type: biochemical; conditions: IDH2 R140Q enzyme
Description: The following describes the experimental procedures used to obtain data on column 7 of Table 4.
The reaction is terminated by the addition of a second enzyme, diaphorase, and a corresponding substrate, resazurin. Diaphorase reduces resazurin to the highly fluorescent resorufin with the concomitant oxidation of NADPH to NADP, both halting the IDH2 reaction by depleting the available cofactor pool and facilitating quantitation of the amount of cofactor remaining after a specific time period through quantitative production of an easily detected fluorophore.
The test compound is then incubated for one hour at room temperature with the enzyme; before starting the IDH2 reaction with the addition of 10 μl of substrate mix containing 4 μM NADPH and 1.6 mM α-KG in the buffer described above. After a further 16 hours of incubation at room temperature, the reaction is halted and the remaining NADPH measured through conversion of resazurin to resorufin by the addition of 25 μl Stop Mix (36 μg/ml diaphorase enzyme and 60 μM resazurin; in buffer).

[1] = test system: Neurosphere cells (TS603); assay: Cellular assay for IDH1m R132H inhibitors, 2-HG by LC-MS in neurosphere cells (TS603); type: cell-based; conditions: 2-HG in media at 48 hours
Procedure: Cellular Assay for IDH1m R132H Inhibitors.
The following describes the experimental procedures that can be used to obtain data in column 4 of Table 5.
Neurosphere cells (TS603) are grown at 37 C in 5% CO2 in Stem Cell Technologies NeuroCult™ NS-A media supplemented with 1% Primocin, 1% Normocin, 0.0002% Heparin, 20 ng/mL EGF and 10 ng/mL bFGF. Cells are harvested, pelleted and resuspended in Accumax for cell dissociation and counting. Cells are counted and then resuspended in NeuroCult media with 2× heparin, EGF and bFGF at 4 million cells/10 mL media. 100 μl of cell solution are plated in each well of a 96 well with the exception of columns 1 and 12. Columns 1 and 12 contain 200 μL PBS. Compound dose responses are set up at a 2× concentration in Neurocult media without heparin, EGF and bFGF. The final concentration of DMSO is 0.25%. DMSO only control wells are plated in row H. The plates are then placed in the incubator for 48 hours. At 48 hours, 100 μl of media is removed from each well and analyzed by LC-MS for 2-HG concentrations. The cell plate is placed back in the incubator for another 24 hours. At 72 hours post compound addition, 10 mL/plate of Promega Cell Titer Glo reagent is thawed and mixed. The cell plate is removed from the incubator and allowed to equilibrate to room temperature. Then 100 μl of Promega Cell Titer Glo reagent is added to each well of media. The cell plate is then placed on an orbital shaker for 10 minutes and then allowed to sit at room temperature for 20 minutes. The plate is then read for luminescence with an integration time of 500 ms.

[2] = molecular target: IDH1 wt/IDH1 R132H heterodimer (Homo sapiens (Human), UniProt O75874, R132H); assay: In vitro assay for IDH1m R132H inhibitors, IDH1 wt/IDH1 R132H heterodimer, NADPH depletion (diaphorase/resazurin); type: biochemical
Procedure: The following describes the experimental procedures that can be used to obtain data on columns 2 and 4 of Table 4 and column 2 of Table 5.
In the primary reaction, the reduction of α-KG acid to 2-HG is accompanied by a concomitant oxidation of NADPH to NADP. The amount of NADPH remaining at the end of the reaction time is measured in a secondary diaphorase/resazurin reaction in which the NADPH is consumed in a 1:1 molar ratio with the conversion of resazurin to the highly fluorescent resorufin.
The mixture of compound, enzyme, and cofactor is pre-incubated at room temperature for 1 hr prior to the addition of alpha-ketoglutarate. To perform the secondary reaction, 10 uL of 1× buffer containing 36 μg/ml diaphorase and […] resazurin is added to the primary reaction and incubated for a further 5 minutes at 25° C. […] Compounds or compound dilutions are prepared in 100% DMSO concentration and diluted 1:50 into the final reaction. […] IC50s are determined.
IDH1 or IDH2 wildtype (wt) and mutant heterodimers are expressed and purified by methods known in the art. […] Co-expression of IDH1wt-his and IDH1R132C-flag is carried out in sf9 insect cells. Cells (25 g) are resuspended in 250 ml of 50 mM Tirs, 500 mM NaCl, pH7.4, at 4° C. with stirring. Cells are disrupted with 4 passes through an M-Y110 Micro fluidizer (Microfluidics) set to 500 psi, and then centrifuged at 22,000 rcf for 20 min at 4° C. The supernatant is harvested and loaded at 15 cm/h on a Histrap FF 5*1 ml column (GE) which is equilibrated with 50 mM Tirs, 500 mM NaCl, pH7.4. Host cell contaminants are removed by washing the column with equilibration buffer followed by equilibration buffer containing 20 mM imidazole and 60 mM imidazole to baseline. IDH1wt-his homodimer and IDH1wt-his/IDH1R132C-flag are eluted by equilibration buffer containing 250 mM imidazole. Fractions eluted by 250 mM imidazole are pooled together and loaded at 15 cm/h onto a column pre-packed with 10 ml ANTI-FLAG® M2 Affinity Gel (Sigma), the column is equilibrated with 50 mM Tris, 500 mM NaCl, pH7.4. After washing with equilibration buffer, IDH1wt-his/IDH1R132C-flag heterodimer is eluted by equilibration buffer containing flag peptide (0.2 mg/ml). Aliquots of IDH1wt-his/IDH1R132C-flag are flash frozen in liquid N2 and stored at −80° C. Same conditions are used for the purification of IDH1wt-his/IDH1R132H-flag.

[3] = test system: U87MG pLVX-IDH2 R140Q-neo cells; assay: U87MG pLVX-IDH2 R140Q-neo cell based assay, 2-HG by LC-MS
[4] = IDH1 wt/R132H heterodimer, NADPH/NADP, not saturated, read-out: IDH1 wt/R132H NADPH/NADP IC50 not saturated
[5] = IDH1 wt/IDH1 R132H heterodimer, 300 μM NADP (saturated), read-out: IDH1 wt/R132H NADPH/NADP IC50 saturated

IDH2 R140Q, sequence (P48735 40-452 R140Q): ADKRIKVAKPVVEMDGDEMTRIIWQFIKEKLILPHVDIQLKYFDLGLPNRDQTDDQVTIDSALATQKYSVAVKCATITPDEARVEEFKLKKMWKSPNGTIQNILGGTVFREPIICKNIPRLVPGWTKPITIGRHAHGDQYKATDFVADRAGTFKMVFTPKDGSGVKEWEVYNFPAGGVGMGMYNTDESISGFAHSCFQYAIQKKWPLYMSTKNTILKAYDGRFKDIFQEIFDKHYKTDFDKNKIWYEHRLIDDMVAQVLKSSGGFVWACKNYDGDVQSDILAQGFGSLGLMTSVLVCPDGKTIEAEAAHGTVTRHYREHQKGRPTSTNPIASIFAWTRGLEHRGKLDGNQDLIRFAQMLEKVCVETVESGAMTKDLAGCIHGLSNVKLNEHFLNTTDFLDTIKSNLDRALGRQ
IDH1 wt/IDH1 R132H heterodimer, sequence (O75874 whole entry R132H): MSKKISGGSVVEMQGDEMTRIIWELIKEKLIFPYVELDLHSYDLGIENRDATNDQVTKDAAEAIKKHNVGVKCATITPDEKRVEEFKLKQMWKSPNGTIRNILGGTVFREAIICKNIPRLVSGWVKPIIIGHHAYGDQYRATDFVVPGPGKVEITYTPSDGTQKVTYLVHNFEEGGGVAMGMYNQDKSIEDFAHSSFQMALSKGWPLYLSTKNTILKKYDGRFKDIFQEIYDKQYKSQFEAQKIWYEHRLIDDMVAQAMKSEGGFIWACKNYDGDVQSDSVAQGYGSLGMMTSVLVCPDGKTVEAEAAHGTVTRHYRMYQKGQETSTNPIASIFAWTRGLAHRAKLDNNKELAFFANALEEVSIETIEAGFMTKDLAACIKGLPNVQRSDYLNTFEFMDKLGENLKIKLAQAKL
IDH1 wt/IDH1 R132H heterodimer, sequence (O75874 whole entry, stated change not applied): as the sequence (O75874 whole entry R132H) above, with H132R counted along it

pIC50 (IDH2 R140Q)	pIC50 [1]	pIC50 [2, 4]	pIC50 ([3]; Homo sapiens, U-87 MG)	pIC50 [2, 5]	pIC50 [3]	Structure (SMILES)
> 7.30	> 7.30	> 7.30	> 7.30	–	–	Fc1cc(F)cc(Nc2nc(NC3CCC(F)(F)C3)nc(-c3cncc(Cl)n3)n2)c1 (centres unmarked) [Compound 109]
> 7.30	> 7.30	> 7.30	> 7.30	–	–	FC1(F)CCC(Nc2nc(NC3CCC(F)(F)C3)nc(-c3cncc(Cl)n3)n2)C1 (centres unmarked) [Compound 129]
–	> 7.30	> 7.30	–	–	–	C[C@@H](Nc1nc(NC2CCc3ccccc32)nc(-c2cccc(C(F)(F)F)n2)n1)C1CC1 (some centres unmarked) [Compound 135]
–	> 7.30	> 7.30	–	–	–	CC(Cc1ccccc1)Nc1nc(N[C@H](C)C2CC2)nc(-c2cccc(C(F)(F)F)n2)n1 (some centres unmarked) [Compound 206]
–	> 7.30	> 7.30	–	–	–	FC1(F)CCC(Nc2nc(NC3CC(c4ccccc4)C3)nc(-c3cccc(C(F)(F)F)n3)n2)C1 (centres unmarked) [Compound 208]
–	> 7.30	> 7.30	–	–	–	FC1(F)CCC(Nc2nc(NC3CCN(c4ccccc4)C3)nc(-c3cccc(C(F)(F)F)n3)n2)C1 (centres unmarked) [Compound 219]
–	> 7.30	> 7.30	–	–	–	FC1(F)CCC(Nc2nc(NC3Cc4ccc(Br)cc4C3)nc(-c3cccc(C(F)(F)F)n3)n2)C1 (centres unmarked) [Compound 225]
–	7.00 to 7.30	7.00 to 7.30	–	–	–	FC1(F)CCC(Nc2nc(NC3Cc4cc(Br)cc(Br)c4C3)nc(-c3cccc(C(F)(F)F)n3)n2)C1 (centres unmarked) [Compound 254]
7.00 to 7.30	–	6.00 to 7.00	7.00 to 7.30	–	–	FC1(F)CC(Nc2nc(NC3CC(F)(F)C3)nc(-c3cccc(OC(F)(F)F)n3)n2)C1 [Compound 277]
< 6.00	–	6.00 to 7.00	< 6.00	–	–	C[C@@H](Nc1nc(N[C@H](C)C2CC2)nc(-c2cncc(Cl)c2)n1)C1CC1 [Compound 278]
< 6.00	–	6.00 to 7.00	< 6.00	–	–	C[C@@H](Nc1nc(N[C@H](C)C2CC2)nc(-c2cccc(N)n2)n1)C1CC1 [Compound 285]
6.00 to 7.00	–	6.00 to 7.00	6.00 to 7.00	–	–	CC(C)(O)CNc1nc(Nc2ccnc(C#N)c2)nc(-c2cccc(C(F)(F)F)n2)n1 [Compound 288]
–	6.00 to 7.00	< 6.00	–	–	–	FC1(F)CCC(Nc2nc(NC3CCC(F)(F)CC3)nc(-c3cccc(C4CC4)n3)n2)CC1 [Compound 305]
–	≤ 6.00	< 6.00	–	–	–	FC1(F)CCC(Nc2nc(NC3CCC(F)(F)CC3)nc(-c3cc(C(F)(F)F)ccn3)n2)CC1 [Compound 318]
–	> 7.30	–	–	> 7.30	–	C[C@@H](Nc1nc(N[C@H](C)C(F)(F)F)nc(-c2cccc(C(F)(F)F)n2)n1)C(F)(F)F [Compound 335]
–	> 7.30	–	–	> 7.30	–	C[C@@H](Nc1nc(Nc2ccnc(C3(C#N)CC3)c2)nc(-c2cncc(C(F)F)n2)n1)C(F)(F)F [Compound 336]
–	> 7.30	–	–	> 7.30	–	C[C@H](Nc1nc(Nc2ccnc(C3(C#N)CC3)c2)nc(-c2cncc(C(F)F)n2)n1)C(F)(F)F [Compound 337]
–	> 7.30	–	–	7.00 to 7.30	–	N#CC1(c2cc(Nc3nc(NC4CCC(F)(F)CC4)nc(-c4cncc(C(F)F)n4)n3)ccn2)CC1 [Compound 338]
> 7.30	–	–	> 7.30	6.00 to 7.00	–	FC1(F)CC[C@H](Nc2nc(Nc3ccnc(C(F)(F)F)c3)nc(-c3ccnc(C(F)(F)F)n3)n2)C1 [Compound 343]
> 7.30	–	–	> 7.30	< 6.00	–	N#CC1(c2cc(Nc3nc(N[C@H]4CCC(F)(F)C4)nc(-c4nccc(C(F)(F)F)n4)n3)ccn2)CC1 [Compound 376]
7.00 to 7.30	–	–	–	< 6.00	7.00 to 7.30	C[C@@H](Nc1nc(N[C@H](C)C2CC2)nc(-c2cccc3[nH]ccc23)n1)C1CC1 [Compound 396]
> 7.30	–	–	> 7.30	6.00 to 7.00	–	CC(C)(O)CNc1nc(Nc2cc(F)cc(C(F)(F)F)c2)nc(-c2cccc(C(C)(F)F)n2)n1 [Compound 397]
> 7.30	–	–	> 7.30	6.00 to 7.00	–	CC(C)(O)CNc1nc(Nc2cc(F)cc(C#N)c2)nc(-c2cccc(C(C)(F)F)n2)n1 [Compound 398]
